# pIC50: −log10 of the molar value. Where two headings read alike, the source gives them in different places.
# Columns and labels:
# MCF-7 cells = test: MTT cytotoxicity assay, MCF-7; assay type: cell-based, human; details: for pIC50: Homo sapiens, MCF7, breast cancer MCF-7, MTT, 72 h
# Method: (§1) These compounds were tested against breast MCF-7 and colorectal HCT-116 cell lines.
# The human breast cancer cell line (MCF-7) used in the present study was obtained from Dr. Neamatallah’s lab. The cells were cultured in Dulbecco’s Modified Eagle Medium (DMEM) supplemented with 10% (v/v) fetal bovine serum (FBS), 10,000 units/mL penicillin/streptomycin, and 1% (v/v) L-glutamine at 37 °C in humidified 5% CO2 incubator.
# (§2) The cytotoxicity activity was done by MTT assay. Breast MCF-7 and colorectal HCT-116 cancer cells were added at 1 × 10^5 cells/mL into a 96-well plate with three replicates, and incubated overnight for attachment at 37 °C in a 5% CO2 humidified atmosphere. Drug concentrations at six serial dilutions (100.0, 50.0, 10.0, 1.0, 0.5, and 0.1 μM) were added in triplicate and incubated at 37 °C and 5% CO2 for 72 h. Drugs were dissolved in 0.1% DMSO as a vehicle. Untreated cells were used as control. […] Thereafter, each well for each time point was removed and replaced with […] of full medium containing 10% 3-(4,5- dimethylthiaxolyl-2)-2,5-diphenyltetrazoliumbromide (MTT) (10 mg/mL). Then the media was removed and 100 µl of DMSO was added, and cells were incubated for a further 5 mins at 37 °C and 5% CO2. Plates were quantified using the SpectraMax M3 plate reader at 570 nm. The percentage inhibition was calculated as 100 − ((mean OD of treated cell × 100)/Mean OD of vehicle treated cells (DMSO)). All the experiments were repeated in at least three independent experiments (Table 2, Figure 3, Figure 4, Figure 5 and Figure 6).
# HCT-116 cells = test: MTT cytotoxicity assay, HCT-116; assay type: cell-based, human; details: for pIC50: colorectal cancer HCT-116, MTT, 72 h; for fold activity compared to 5-fluorouracil, HCT-116 / fold activity compared to tamoxifen, HCT-116: ratio of IC50, HCT-116
# Method: as §1, §2
# HEK 293 cells = test: MTT assay on non-tumorigenic cell line HEK 293; assay type: cell-based; details: HEK293, normal human embryonic kidney cells
# [1] = molecular target: thymidylate synthase (TS) (Homo sapiens, UniProt P04818); test: In vitro thymidylate synthase enzyme assay; assay type: biochemical; details: for fold activity compared to pemetrexed, TS: ratio of IC50, TS enzyme
# Method: The inhibition of this enzyme plays a vital role in chemotherapy treatment. […] This inactivation of dTMP results in a reduction of deoxythymidine triphosphate (dTTP), leading to the disruption of DNA synthesis and cessation of cell growth and proliferation (Figure 7).
# A thymidylate synthase enzymatic assay was carried out according to the reported method. It involves a mixture containing 2-mercaptoethanol (0.1 M), (6R,S)-tetrahydrofolate (0.0003 M), formaldehyde (0.012 M), MgCl2 (0.02 M), dUMP (0.001 M), TrisHCl (0.04 M), and NaEDTA (0.00075 M).This assay was done spectrophotometrically at 30° C and pH 7.4. The reaction was initiated by the addition of an amount of enzyme, giving a change in absorbance at 340 nm of 0.016/min in the absence of inhibitor. The percent inhibition was determined at a minimum of four inhibitor concentrations within 20% of the 50% point.
# [2] = spectrophotometric, 340 nm, 30 °C, pH 7.4, read-out: IC50 thymidylate synthase
# Chain of thymidylate synthase (TS) (P04818 whole entry): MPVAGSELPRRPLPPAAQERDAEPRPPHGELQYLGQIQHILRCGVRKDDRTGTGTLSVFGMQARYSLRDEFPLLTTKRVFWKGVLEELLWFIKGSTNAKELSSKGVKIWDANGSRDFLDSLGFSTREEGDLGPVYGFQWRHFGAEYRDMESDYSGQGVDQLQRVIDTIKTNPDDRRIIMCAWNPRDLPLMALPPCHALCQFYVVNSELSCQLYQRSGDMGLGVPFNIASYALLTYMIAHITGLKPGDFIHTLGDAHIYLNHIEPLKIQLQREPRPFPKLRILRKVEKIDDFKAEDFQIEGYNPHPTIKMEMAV
Compound,melting point [°C],pIC50 (MCF-7 cells),"pIC50 (HCT-116 cells; Homo sapiens, HCT-116, 72 h)",also measured
"O=c1[nH]cc(F)c(=O)[nH]1 [Compound 5-FU, 5-fluorouracil, reference compound]",–,4.61,4.49,–
"Cc1ccc(-n2cc(CSc3nnc(-c4ccccc4)o3)nn2)cc1 [Compound 6, 4-((5-phenyl–1,3,4-oxadiazol–2-ylthio)methyl)-1-p-tolyl–1H-1,2,3-triazole]",–,4.10,4.05,–
"Cc1ccccc1-n1cc(CSc2nnc(-c3ccccc3)o2)nn1 [Compound 7, 4-((5-phenyl–1,3,4-oxadiazol-2-ylthio)methyl)–1-o-tolyl-1H–1,2,3-triazole]",–,4.51,4.46,–
"c1ccc(-c2nnc(SCc3cn(-c4ccccc4)nn3)o2)cc1 [Compound 12, 4-((5-phenyl–1,3,4-oxadiazol–2-ylthio)methyl)-1-phenyl-1H–1,2,3-triazole]",–,5.24,4.83,"pIC50 (HEK 293 cells): < 4.30; fold activity compared to 5-fluorouracil, MCF-7 (MCF-7 cells; ratio of IC50, MCF-7): four-fold; fold activity compared to 5-fluorouracil, HCT-116 (HCT-116 cells): 2.2 fold; fold activity compared to tamoxifen, HCT-116 (HCT-116 cells): 1.7 fold; fold activity compared to pemetrexed, TS [1]: 2.6 fold; pIC50 [1, 2]: 5.60"
"Nc1nc2[nH]cc(CCc3ccc(C(=O)N[C@@H](CCC(=O)O)C(=O)O)cc3)c2c(=O)[nH]1 [PTX, pemetrexed, reference compound]",–,–,–,pIC50 [1]: 5.17

# Second part, led by results:
melting point [°C],Compound,pIC50 (MCF-7 cells),"pIC50 (HCT-116 cells; Homo sapiens, HCT-116, 72 h)",also measured
111 to 112,"Clc1ccccc1-n1cc(CSc2nnc(-c3ccccc3)o2)nn1 [Compound 8, 4-((5-phenyl–1,3,4-oxadiazol–2-ylthio)methyl)–1-(2-chlorophenyl)-1H–1,2,3-triazole]",4.13,< 4.00,pIC50 (HCT-116 cells): 3.97
200 to 202,"Clc1ccc(-n2cc(CSc3nnc(-c4ccccc4)o3)nn2)cc1 [Compound 9, 4-((5-phenyl–1,3,4-oxadiazol-2-ylthio)methyl)–1-(4-chlorophenyl)-1H–1,2,3-triazole]",4.46,4.44,–
146 to 148,"Brc1cccc(-n2cc(CSc3nnc(-c4ccccc4)o3)nn2)c1 [Compound 10, 4-((5-phenyl–1,3,4-oxadiazol–2-ylthio)methyl)-1-(3-bromophenyl)-1H–1,2,3-triazole]",4.59,4.49,–
202 to 204,"O=[N+]([O-])c1ccc(-n2cc(CSc3nnc(-c4ccccc4)o3)nn2)cc1 [Compound 11, 4-((5-phenyl–1,3,4-oxadiazol–2-ylthio)methyl)–1-(4-nitrophenyl)-1H–1,2,3-triazole]",4.01,< 4.00,pIC50 (HCT-116 cells): 3.99
119 to 120,"COC(=O)c1ccccc1-n1cc(CSc2nnc(-c3ccccc3)o2)nn1 [Compound 13, Methyl 2-(4-((5-phenyl–1,3,4-oxadiazol-2-ylthio)methyl)-1H–1,2,3-triazol–1-yl)benzoate]",5.90,4.76,"pIC50 (HEK 293 cells): < 4.30; fold activity compared to tamoxifen, MCF-7 (MCF-7 cells; ratio of IC50, MCF-7): five times; fold activity compared to 5-fluorouracil, HCT-116 (HCT-116 cells): 1.9 fold; fold activity compared to tamoxifen, HCT-116 (HCT-116 cells): 1.5 fold; fold activity compared to pemetrexed, TS [1]: 1.5 fold; pIC50 [1, 2]: 5.36"
119 to 120,"O=C(O)c1ccccc1-n1cc(CSc2nnc(-c3ccccc3)o2)nn1 [Compound 14, 2-(4-((5-phenyl–1,3,4-oxadiazol–2-ylthio)methyl)-1H–1,2,3-triazol–1-yl)benzoic acid]",4.39,4.33,–
